Source: ChEMBL document CHEMBL4190382, “Targeting lysine specific demethylase 4A (KDM4A) tandem TUDOR domain - A fragment based approach” (Bioorg Med Chem Lett, 2018)

How the values were obtained:
[1] = target: T1, Lysine-specific demethylase 4C (Homo sapiens, UniProt Q9H3R0); assay: Binding affinity to 6His-tagged and human KDM4C tandem TUDOR domain (874 to 990 residues) expressed in Escherichia coli BL21(DE3)-T1R by ITC method
T1 sequence (Q9H3R0 whole entry): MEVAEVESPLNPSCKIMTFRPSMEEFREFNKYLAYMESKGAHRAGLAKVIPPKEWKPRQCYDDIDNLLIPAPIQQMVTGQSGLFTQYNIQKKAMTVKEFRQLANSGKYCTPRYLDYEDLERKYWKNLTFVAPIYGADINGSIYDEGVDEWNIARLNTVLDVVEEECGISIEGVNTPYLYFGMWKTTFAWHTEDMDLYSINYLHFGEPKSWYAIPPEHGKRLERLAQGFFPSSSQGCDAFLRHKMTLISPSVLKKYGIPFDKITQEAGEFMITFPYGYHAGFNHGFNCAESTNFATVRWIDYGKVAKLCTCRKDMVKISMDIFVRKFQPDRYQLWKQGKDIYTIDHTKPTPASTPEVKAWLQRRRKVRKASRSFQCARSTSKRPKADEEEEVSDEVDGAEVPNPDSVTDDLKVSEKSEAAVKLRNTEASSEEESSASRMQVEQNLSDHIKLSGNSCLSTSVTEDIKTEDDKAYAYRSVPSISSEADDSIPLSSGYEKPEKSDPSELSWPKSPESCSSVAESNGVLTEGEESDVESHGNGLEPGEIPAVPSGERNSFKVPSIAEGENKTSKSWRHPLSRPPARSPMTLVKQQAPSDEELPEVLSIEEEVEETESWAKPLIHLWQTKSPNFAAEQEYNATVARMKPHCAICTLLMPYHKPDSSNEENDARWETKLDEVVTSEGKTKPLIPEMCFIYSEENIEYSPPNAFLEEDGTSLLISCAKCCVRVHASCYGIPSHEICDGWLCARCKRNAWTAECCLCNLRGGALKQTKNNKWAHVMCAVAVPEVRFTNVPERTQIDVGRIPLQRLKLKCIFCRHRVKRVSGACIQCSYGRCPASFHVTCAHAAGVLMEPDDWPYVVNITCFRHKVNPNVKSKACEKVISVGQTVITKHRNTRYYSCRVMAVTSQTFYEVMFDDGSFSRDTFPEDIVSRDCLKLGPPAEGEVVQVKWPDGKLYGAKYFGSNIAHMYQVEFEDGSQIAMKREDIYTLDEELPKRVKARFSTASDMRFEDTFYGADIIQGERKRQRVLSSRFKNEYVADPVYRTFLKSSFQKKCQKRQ

[2] = target: T2, Lysine-specific demethylase 4A (Homo sapiens, UniProt O75164); assay: Inhibition of NanoLuc-KDM4A-TUDOR domain (unknown origin) binding to Histone H3.3-HaloTag expressed in 293T cells incubated for 18 hrs by Nano-BRET based target engagement assay; format: cell-based
T2 sequence (O75164 whole entry): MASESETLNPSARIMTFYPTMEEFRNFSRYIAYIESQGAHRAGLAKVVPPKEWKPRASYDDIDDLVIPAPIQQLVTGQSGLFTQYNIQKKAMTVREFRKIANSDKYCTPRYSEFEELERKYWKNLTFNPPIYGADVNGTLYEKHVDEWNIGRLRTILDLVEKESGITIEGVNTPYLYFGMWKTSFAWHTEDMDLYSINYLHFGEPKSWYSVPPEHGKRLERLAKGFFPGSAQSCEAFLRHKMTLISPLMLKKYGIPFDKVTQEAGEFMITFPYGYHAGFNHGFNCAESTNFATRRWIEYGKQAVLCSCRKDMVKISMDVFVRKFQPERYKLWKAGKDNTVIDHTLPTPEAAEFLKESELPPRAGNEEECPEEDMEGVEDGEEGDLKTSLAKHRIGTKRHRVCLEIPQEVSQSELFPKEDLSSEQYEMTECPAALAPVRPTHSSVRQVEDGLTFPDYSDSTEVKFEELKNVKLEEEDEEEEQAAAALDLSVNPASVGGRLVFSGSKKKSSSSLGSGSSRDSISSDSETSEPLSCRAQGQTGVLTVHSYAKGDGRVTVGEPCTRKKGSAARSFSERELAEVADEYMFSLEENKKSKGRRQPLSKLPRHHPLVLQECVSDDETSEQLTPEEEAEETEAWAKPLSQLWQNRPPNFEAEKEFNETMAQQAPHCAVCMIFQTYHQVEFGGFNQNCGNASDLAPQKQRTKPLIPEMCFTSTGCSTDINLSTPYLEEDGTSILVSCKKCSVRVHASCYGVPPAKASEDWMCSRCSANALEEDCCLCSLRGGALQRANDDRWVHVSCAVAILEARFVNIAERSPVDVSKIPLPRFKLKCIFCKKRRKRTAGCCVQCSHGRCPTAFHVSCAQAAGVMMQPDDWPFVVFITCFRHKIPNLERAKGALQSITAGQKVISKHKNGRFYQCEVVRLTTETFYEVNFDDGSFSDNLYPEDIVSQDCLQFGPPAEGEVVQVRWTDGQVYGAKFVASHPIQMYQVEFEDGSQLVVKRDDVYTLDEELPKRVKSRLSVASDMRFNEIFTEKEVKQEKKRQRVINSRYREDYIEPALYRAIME

[3] = target: T2, Lysine-specific demethylase 4A; assay: Binding affinity to thrombin cleavable N-terminal 6His tagged and 13C-IVLM labeled human KDM4A tandem TUDOR domain (897 to 1011 residues) expressed in Escherichia coli BL21(DE3)-T1R by ITC method

SMILES: CN(C)C[C@H]1C2CCC(c3ccccc3)(C2)[C@H]1O (stereo partly drawn)
- Kd [1]: 129 µM
- EC50 [2]: 105 µM
- Kd [3]: 81.7 µM
